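Interpolation was linear, between the two tested concentrations surrounding the appropriate level; five concentrations were tested over 48 hours in 96-well plates. GI50 is the concentration that inhibits growth by half. TGI denotes the concentration required for complete inhibition of growth.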

Among the test systems are NCI-H460 lung; NCI-H226 lung; SK-MEL-2 melanoma; T-47D breast; K-562 leukemia; HOP-62 NSCLC; U251 CNS; RXF 393 renal; 786-0 renal; SN12C renal.
Test in all cases: NCI-60 cell line screen, 48 h

In the case of `CCOC(=O)c1csc(NC(=O)CCN2CCCC2)n1`, the TGI in the assay on NCI-H460 lung, in the assay on NCI-H226 lung, with SK-MEL-2 melanoma, in the assay on T-47D breast, with K-562 leukemia and with HOP-62 NSCLC was over 100 µM each time. Also, the TGI in the assay with U251 CNS and in the assay on RXF 393 renal was over 100 µM in each case.
For the compound `COc1ccc(C(=O)/C=C/SC(=NC#N)SC)cc1`, the TGI in the assay with NCI-H460 lung was over 100 µM; in the assay with NCI-H226 lung, 43.5 µM; with SK-MEL-2 melanoma, 43.8 µM; in the assay on T-47D breast, 47.3 µM; with 786-0 renal, 38.8 µM; in the assay with K-562 leukemia it was over 100 µM. Further, the TGI came to 75.2 µM in the assay on SN12C renal, 44.1 µM in the assay on HOP-62 NSCLC, 37.9 µM with U251 CNS and 35.1 µM with RXF 393 renal.
Turning to `O=C1c2cc3c(cc2-c2c1c1ccc(Cl)cc1c(=O)n2CCCn1ccnc1)OCO3`, the GI50 in the assay on NCI-H460 lung is under 0.01 µM; with NCI-H226 lung, 0.0186 µM; in the assay with SK-MEL-2 melanoma it was 0.649 µM; with T-47D breast, under 0.01 µM; with K-562 leukemia, 0.0229 µM; in the assay with SN12C renal, under 0.01 µM. Moreover, the GI50 with HOP-62 NSCLC, in the assay on U251 CNS and in the assay on RXF 393 renal was under 0.01 µM throughout. Moreover, the TGI in the assay on NCI-H460 lung was 10.3 µM; with NCI-H226 lung, over 100 µM; in the assay with SK-MEL-2 melanoma, over 100 µM; with T-47D breast, over 100 µM; in the assay on K-562 leukemia it was 12.6 µM; in the assay on SN12C renal it was over 100 µM. The TGI in the assay on HOP-62 NSCLC was over 100 µM; in the assay on U251 CNS, 11.3 µM; with RXF 393 renal, 0.0518 µM.
Regarding `CCOC(=O)c1csc(NC(=O)CCN2CCN(C)CC2)n1`, the TGI in the assay with NCI-H460 lung, with NCI-H226 lung, in the assay with SK-MEL-2 melanoma, with T-47D breast, in the assay with K-562 leukemia and in the assay on HOP-62 NSCLC was over 100 µM each time. In addition, the TGI in the assay with U251 CNS and with RXF 393 renal was over 100 µM throughout.
For `Cc1cc(S(=O)(=O)N=C2Nc3cccc4cccc(c34)N2)c(S)cc1Cl`, the TGI in the assay with NCI-H460 lung, in the assay on NCI-H226 lung, in the assay on SK-MEL-2 melanoma, with T-47D breast, with 786-0 renal and in the assay with K-562 leukemia was over 100 µM throughout. Further, the TGI with U251 CNS and in the assay with RXF 393 renal was over 100 µM each time.
For the compound `CCN(CC)CCCCNc1c2ccc(Cl)cc2nc2ccc(OC)cc12`, the GI50 in the assay with NCI-H460 lung is 0.287 µM; in the assay with NCI-H226 lung, 1.32 µM; in the assay with SK-MEL-2 melanoma it was 1.15 µM; with T-47D breast it was 1.22 µM; with K-562 leukemia, 0.578 µM; in the assay on SN12C renal, 0.438 µM. Besides, the values for the GI50 with HOP-62 NSCLC, with U251 CNS and in the assay on RXF 393 renal were 0.401 µM, 0.45 µM and 0.381 µM, respectively. Besides, the TGI worked out at 3.35 µM in the assay with NCI-H226 lung; 3.31 µM with SK-MEL-2 melanoma; 4.54 µM with T-47D breast; 3.56 µM in the assay on K-562 leukemia; 2.61 µM in the assay on SN12C renal; 2.89 µM with HOP-62 NSCLC. For the same compound, the TGI in the assay with U251 CNS was determined as 2.16 µM; in the assay on RXF 393 renal, 1.78 µM.
Consider `OC(CC(O)(C(F)(F)Cl)C(F)(F)Cl)c1ccccc1` (centres undefined), for which the TGI in the assay on NCI-H460 lung, in the assay with NCI-H226 lung, in the assay on SK-MEL-2 melanoma, in the assay on T-47D breast, in the assay with K-562 leukemia and in the assay with SN12C renal was over 10 µM throughout. The TGI in the assay on HOP-62 NSCLC, with U251 CNS and with RXF 393 renal was over 10 µM throughout.
Consider `Cc1ccc(C)c(COCCOCn2cc(N3CCOCC3)c(=O)[nH]c2=O)c1`, for which the TGI with NCI-H460 lung, with NCI-H226 lung, in the assay on SK-MEL-2 melanoma, in the assay on T-47D breast, in the assay on 786-0 renal and with K-562 leukemia was over 100 µM in each case. Further, the TGI in the assay with SN12C renal, with U251 CNS and in the assay on RXF 393 renal was over 100 µM each time.
As to `CSc1ncc2c(n1)-c1ccccc1OC2NC1CC1` (centres undefined), the TGI is over 100 µM with NCI-H460 lung; over 100 µM in the assay on NCI-H226 lung; over 100 µM with SK-MEL-2 melanoma; 91.7 µM in the assay with T-47D breast; over 100 µM with 786-0 renal; over 100 µM in the assay with K-562 leukemia. Further, the TGI with SN12C renal, in the assay with U251 CNS and in the assay with RXF 393 renal was over 100 µM in each case.
In the case of `CC(C)(C)/C(O)=C\c1nc2cc(F)c(F)cc2[nH]c1=O`, the TGI in the assay on NCI-H460 lung, with NCI-H226 lung, with SK-MEL-2 melanoma, in the assay on T-47D breast, with 786-0 renal and in the assay on K-562 leukemia was over 100 µM in each case. Also, the TGI in the assay with HOP-62 NSCLC, in the assay on U251 CNS and with RXF 393 renal was over 100 µM in each case.
For the compound `COc1ccc(C2c3cc4c(cc3OC(Nc3ccccc3)C2C)OCO4)cc1` (centres undefined), the TGI with NCI-H460 lung, in the assay on NCI-H226 lung, in the assay with SK-MEL-2 melanoma, in the assay with T-47D breast, in the assay with K-562 leukemia and in the assay on SN12C renal was over 100 µM each time. Moreover, the TGI in the assay on HOP-62 NSCLC, in the assay on U251 CNS and with RXF 393 renal was over 100 µM in each case.
